Experimental data published in ChEMBL document CHEMBL4699475, “Campafungins: Inhibitors of Candida albicans and Cryptococcus neoformans Hyphal Growth” (2020).
Active and inactive are the calls of the source. No cut-off for these calls is given here.

Assays:
Candida albicans [1] = experiment: Antimicrobial activity against Candida albicans ATCC 10231 assessed as reduction in microbial growth after 48 hrs by resazurin staining based liquid serial dilution assay; assay type: functional
Nakaseomyces glabratus = experiment: Antimicrobial activity against Candida glabrata ATCC 2001 assessed as reduction in microbial growth after 48 hrs by resazurin staining based liquid serial dilution assay; assay type: functional
Candida tropicalis = experiment: Antimicrobial activity against Candida tropicalis ATCC 750 assessed as reduction in microbial growth after 48 hrs by resazurin staining based liquid serial dilution assay; assay type: functional
Staphylococcus aureus = experiment: Antimicrobial activity against Staphylococcus aureus ATCC 43300 assessed as reduction in microbial growth after 24 hrs by resazurin staining based liquid serial dilution assay; assay type: functional
Aspergillus fumigatus [2] = experiment: Antimicrobial activity against Aspergillus fumigatus FSGC A1240 assessed as reduction in microbial growth after 48 hrs by resazurin staining based liquid serial dilution assay; assay type: functional
Cryptococcus neoformans [3] = experiment: Antimicrobial activity against Cryptococcus neoformans H99 assessed as reduction in microbial growth after 72 hrs by resazurin staining based liquid serial dilution assay; assay type: functional
Cryptococcus neoformans [4] = experiment: Antimicrobial activity against Cryptococcus neoformans H99 harboring pkr1 deletion mutant assessed as reduction in microbial growth after 72 hrs by resazurin staining based liquid serial dilution assay; assay type: functional, organism-based
Cryptococcus neoformans [5] = experiment: Effect on cAMP signaling mediated virulence associated encapsulation phenotype in Cryptococcus neoformans H99 incubated for 72 hrs by India Ink staining based analysis; assay type: functional
Candida albicans [6] = experiment: Inhibition of hyphal extension in Candida albicans SC3514 at 10 ug/ml measured after 24 to 48 hrs by microscopic analysis; assay type: functional, organism-based; conditions: dose 10.0 µg/ml, time 24-48 hrs
Aspergillus fumigatus [7] = experiment: Inhibition of hyphal extension in Aspergillus fumigatus AF293 at 10 ug/ml measured after 48 hrs by microscopic analysis; assay type: functional, organism-based; conditions: dose 10.0 µg/ml
[8] = test system: Schizosaccharomyces pombe; experiment: Antimicrobial activity against Schizosaccharomyces pombe strain SAK1 harboring MJ-1682 efflux mutant assessed as reduction in microbial growth by resazurin staining based CLSI method; assay type: functional
Cryptococcus neoformans [9] = experiment: Antimicrobial activity against Cryptococcus neoformans H99 harboring pde1 deletion mutant assessed as reduction in microbial growth after 72 hrs by resazurin staining based liquid serial dilution assay; assay type: functional, organism-based
Cryptococcus neoformans [10] = experiment: Antimicrobial activity against Cryptococcus neoformans H99 harboring pka1 deletion mutant assessed as reduction in microbial growth after 72 hrs by resazurin staining based liquid serial dilution assay; assay type: functional, organism-based
Aspergillus fumigatus [11] = experiment: Antimicrobial activity against Aspergillus fumigatus AF293 assessed as reduction in microbial growth after 48 hrs by resazurin staining based liquid serial dilution assay; assay type: functional
Cryptococcus neoformans [12] = experiment: Antimicrobial activity against Cryptococcus neoformans H99 harboring gpa1 deletion mutant assessed as reduction in microbial growth after 72 hrs by resazurin staining based liquid serial dilution assay; assay type: functional, organism-based
Cryptococcus neoformans [13] = experiment: Antimicrobial activity against Cryptococcus neoformans H99 harboring cac1 deletion mutant assessed as reduction in microbial growth after 72 hrs by resazurin staining based liquid serial dilution assay; assay type: functional, organism-based
Candida albicans [14] = experiment: Inhibition of hyphal extension in Candida albicans SC3514 at 10 ug/ml measured at >48 hrs by microscopic analysis; assay type: functional, organism-based; conditions: dose 10.0 µg/ml, time hrs >48
Cryptococcus neoformans [15] = experiment: Effect on cAMP signaling mediated virulence associated melanin production phenotype in Cryptococcus neoformans H99 incubated for 72 hrs in presence of L-DOPA; assay type: functional
[16] = test system: Schizosaccharomyces pombe; experiment: Antimicrobial activity against Schizosaccharomyces pombe strain SAK1 assessed as reduction in microbial growth by resazurin staining based CLSI method; assay type: functional

| Structure (SMILES) | MIC (Candida albicans [1]) | MIC (Nakaseomyces glabratus) | MIC (Candida tropicalis) | MIC (Staphylococcus aureus) | MIC (Aspergillus fumigatus [2]) | MIC (Cryptococcus neoformans [3]) | Activity (Cryptococcus neoformans [4]) | Activity (Cryptococcus neoformans [5]) | inhibition (Candida albicans [6]) | inhibition (Aspergillus fumigatus [7]) | MIC [8] | Activity (Cryptococcus neoformans [9]) | Activity (Cryptococcus neoformans [10]) | MIC (Aspergillus fumigatus [11]) | Activity (Cryptococcus neoformans [12]) | Activity (Cryptococcus neoformans [13]) | inhibition (Candida albicans [14]) | Activity (Cryptococcus neoformans [15]) | MIC [16] |
| --- | --- | --- | --- | --- | --- | --- | --- | --- | --- | --- | --- | --- | --- | --- | --- | --- | --- | --- | --- |
| C/C=C(\C)[C@@]1(O)[C@@H](/C=C/C=C/C=C/C=C/C(=O)O)[C@@H]2CC=C(C)C[C@H]2[C@@H]2O[C@@H]21 | 128 µg/mL | > 128 µg/mL | 64 µg/mL | 32 µg/mL | 64 µg/mL | 4 µg/mL | – | – | – | – | – | – | – | – | – | – | – | – | – |
| C[C@@H]1[C@H](O)[C@@H](C)/C=C/C=C/C=C/C=C/C=C/C=C/C=C/[C@H](O[C@@H]2O[C@H](C)[C@@H](O)[C@H](N)[C@@H]2O)C[C@@H]2O[C@](O)(C[C@@H](O)C[C@@H](O)[C@H](O)CC[C@@H](O)C[C@@H](O)CC(=O)O[C@H]1C)C[C@H](O)[C@H]2C(=O)O [AMPHOTERICIN B] | 0.36 µg/mL | 0.18 µg/mL | 0.36 µg/mL | – | 0.74 µg/mL | 0.36 µg/mL | – | – | – | – | – | – | – | – | – | – | – | – | – |
| C\C=C(/C=C/C=C/C=C/C=C/C(=O)O)[C@]1(O)[C@H]2CC=C(C)C[C@@H]2C=C[C@@]1(C)O | 128 µg/mL | > 128 µg/mL | 64 µg/mL | 64 µg/mL | 64 µg/mL | 8 µg/mL | Active | inactive | Active | Active | 2 µg/mL | Active | Active | 38 µg/mL | Active | Active | inactive | inactive | 10 µg/mL |
| C/C=C(\C)[C@]1(O)C=C[C@@H]2CC(C)=CC[C@H]2[C@]1(O)/C=C/C=C/C=C\C=C\C(=O)O | 128 µg/mL | > 128 µg/mL | 64 µg/mL | 32 µg/mL | 64 µg/mL | 4 µg/mL | – | – | – | – | – | – | – | – | – | – | – | – | – |
| C/C=C(\C)[C@]1(O)C=C[C@@H]2CC(C)=CC[C@H]2[C@]1(O)/C=C/C=C/C=C\C=C\C=C\C(=O)O | > 128 µg/mL | > 128 µg/mL | 64 µg/mL | 32 µg/mL | 64 µg/mL | 8 µg/mL | – | – | – | – | – | – | – | – | – | – | – | – | – |
